In ChEMBL document CHEMBL1201862, “PubChem BioAssay data set” (2004):
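The compound was tested at five concentrations on cells cultured in 96-well plates, with a 48-hour exposure period. GI50 marks 50% less growth.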 Calls of active or inactive are those of the source. Cut-off read from the data, not from the text of the source: active = GI50 up to about 1.1 µM and inactive = higher.

Key:
Assay in all cases: NCI anticancer screen, dose series, 48 h
[1] = test system: SK-MEL-5
[2] = test system: HL-60
[3] = test system: Hs-578T
[4] = test system: 786-0
[5] = test system: CAKI-1
[6] = test system: HCT-116
[7] = test system: SW-620
[8] = test system: TK-10
[9] = test system: A498
[10] = test system: LOX IMVI
[11] = test system: SF-295
[12] = test system: NCI/ADR-RES
[13] = test system: RXF 393
[14] = test system: M14
[15] = test system: T47D
[16] = test system: SNB-75
[17] = test system: HCT-15
[18] = test system: PC-3
[19] = test system: MCF7

| Structure (SMILES) | GI50 [1] | GI50 [2] | GI50 [3] | GI50 [4] | GI50 [5] | GI50 [6] | GI50 [7] | GI50 [8] | GI50 [9] | GI50 [10] | GI50 [11] | GI50 [12] | GI50 [13] | GI50 [14] | GI50 [15] | GI50 [16] | GI50 [17] | GI50 [18] | GI50 [19] |
| --- | --- | --- | --- | --- | --- | --- | --- | --- | --- | --- | --- | --- | --- | --- | --- | --- | --- | --- | --- |
| COc1cc(C)c(/C=C/C(=O)N2C(=O)OC[C@@H]2c2ccccc2)c(C)c1 | 60.8 µM (inactive) | 98.4 µM (inactive) | 88.9 µM (inactive) | > 100 µM (inactive) | > 100 µM (inactive) | 89.3 µM (inactive) | > 100 µM (inactive) | > 100 µM (inactive) | 52.5 µM (inactive) | > 100 µM (inactive) | > 100 µM (inactive) | 28.6 µM (inactive) | 9.02 µM (inactive) | > 100 µM (inactive) | 23.2 µM (inactive) | 34.3 µM (inactive) | 74 µM | 50.4 µM (inactive) |  |
| C[C@H]1O[C@@H](c2c(O)ccc3ccccc23)C[C@@H](N(C)C)C1O (some centres not stated) | 40.4 µM (inactive) | 85.1 µM (inactive) | 80.4 µM (inactive) | 91.6 µM (inactive) |  | > 100 µM (inactive) | > 100 µM (inactive) | 41.3 µM (inactive) | 51.9 µM (inactive) | > 100 µM (inactive) | > 100 µM (inactive) | > 100 µM (inactive) | 20.7 µM (inactive) | 78.5 µM (inactive) |  | 43.8 µM (inactive) | > 100 µM | 48.3 µM (inactive) | > 100 µM (inactive) |
| Cc1ccc2c(O)cc(-c3sc4ccccc4c3C)nc2n1 |  |  | 19.9 µM (inactive) | 20.5 µM (inactive) | 21.6 µM (inactive) | 20.1 µM (inactive) |  | 46.6 µM (inactive) | 22.4 µM (inactive) | 21.8 µM (inactive) | 17.1 µM (inactive) | 17.1 µM (inactive) |  | 17.5 µM (inactive) | 14.5 µM (inactive) | 17.3 µM (inactive) | 17.7 µM |  | 41.7 µM (inactive) |
| Cc1ccc(-c2c(C#N)c(-c3ccc([N+](=O)[O-])cc3)c(C#N)c(=O)n2NS(=O)(=O)c2ccc(C)cc2)cc1 | 19.8 µM (inactive) | 31.3 µM (inactive) | 30.7 µM (inactive) | 65 µM (inactive) | 50.6 µM (inactive) | 36.6 µM (inactive) | 51.6 µM (inactive) | 51.3 µM (inactive) | 67.8 µM (inactive) | 33.4 µM (inactive) | 40.9 µM (inactive) | 38.1 µM (inactive) | 52.2 µM (inactive) | 54.1 µM (inactive) |  | 74.5 µM (inactive) | 41.6 µM | 42.8 µM (inactive) | 24.9 µM (inactive) |
| CC(=O)Oc1ccc2c(c1)CC[C@@H]1C2CC[C@]2(C)C(=O)NC(=O)CC12 (some centres not stated) | > 100 µM (inactive) | > 100 µM (inactive) | > 100 µM (inactive) | > 100 µM (inactive) | > 100 µM (inactive) | > 100 µM (inactive) | > 100 µM (inactive) | > 100 µM (inactive) | > 100 µM (inactive) |  | > 100 µM (inactive) |  | > 100 µM (inactive) | > 100 µM (inactive) | > 100 µM (inactive) | > 100 µM (inactive) |  | > 100 µM (inactive) | > 100 µM (inactive) |
| CCCCCCNC(=O)c1cnc(Cl)cn1 | 16.8 µM (inactive) | 23.8 µM (inactive) | 14.2 µM (inactive) | 26.1 µM (inactive) | 1.17 µM (inactive) | 17.1 µM (inactive) | 15.1 µM (inactive) | 22.4 µM (inactive) |  | 14.6 µM (inactive) | 18.1 µM (inactive) | 15.6 µM (inactive) |  | 13.2 µM (inactive) | 20 µM (inactive) | 21 µM (inactive) | 2.55 µM | 5.51 µM (inactive) | 5.15 µM (inactive) |
| CCc1n[nH]c(=O)n1CCO | > 100 µM (inactive) | > 100 µM (inactive) |  | > 100 µM (inactive) | > 100 µM (inactive) | > 100 µM (inactive) | > 100 µM (inactive) | > 100 µM (inactive) | > 100 µM (inactive) | > 100 µM (inactive) | > 100 µM (inactive) | > 100 µM (inactive) |  | > 100 µM (inactive) | > 100 µM (inactive) |  | > 100 µM | > 100 µM (inactive) | > 100 µM (inactive) |
| O=C1NC(=O)c2ccccc2/C1=C/c1ccc2c(c1)OCO2 | 15.1 µM (inactive) | 2.72 µM (inactive) | 10.4 µM (inactive) | 8.02 µM (inactive) | 24.5 µM (inactive) | 5 µM (inactive) | 30.5 µM (inactive) | 55.7 µM (inactive) | > 100 µM (inactive) | 20.9 µM (inactive) | 24.5 µM (inactive) | 17.9 µM (inactive) | 3.29 µM (inactive) | 24 µM (inactive) | > 100 µM (inactive) | 28.1 µM (inactive) | 15.6 µM |  | 20 µM (inactive) |
| O=C(O)C/C(=C\c1ccco1)C(=O)O | > 100 µM (inactive) | > 100 µM (inactive) |  | > 100 µM (inactive) | > 100 µM (inactive) | > 100 µM (inactive) | > 100 µM (inactive) | > 100 µM (inactive) | > 100 µM (inactive) | > 100 µM (inactive) | > 100 µM (inactive) | > 100 µM (inactive) | > 100 µM (inactive) | > 100 µM (inactive) | > 100 µM (inactive) | > 100 µM (inactive) | > 100 µM | > 100 µM (inactive) | > 100 µM (inactive) |
| CC(C)(NO)/C(=N\O)c1ccccc1 |  | > 10 µM (inactive) |  | > 10 µM (inactive) | > 10 µM (inactive) | > 10 µM (inactive) | > 10 µM (inactive) | > 10 µM (inactive) |  |  | > 10 µM (inactive) | > 10 µM (inactive) | > 10 µM (inactive) | > 10 µM (inactive) | > 10 µM (inactive) |  | > 10 µM | > 10 µM (inactive) | > 10 µM (inactive) |
| CCCCCCCCCC1C(C)c2c([nH]c3ccccc23)C2C(=O)N(c3ccccc3)C(=O)C21 (configuration not stated) | 17 µM (inactive) | 3.71 µM (inactive) |  | 12.4 µM (inactive) | 14 µM (inactive) | 2.94 µM (inactive) | 35.7 µM (inactive) | 28 µM (inactive) | 19.2 µM (inactive) |  | 15.4 µM (inactive) |  | 1.85 µM (inactive) | 13.1 µM (inactive) |  | 13.5 µM (inactive) | 11 µM |  |  |
| CS(=O)(=O)OCCN1CCC2(CC1)SSC1(CCN(CCOS(C)(=O)=O)CC1)S2 | 16.1 µM (inactive) | 24.3 µM (inactive) | 82.6 µM (inactive) | 56.9 µM (inactive) | 21.8 µM (inactive) | 53.2 µM (inactive) | 42.3 µM (inactive) | 15.7 µM (inactive) | 0.352 µM (active) | 19.8 µM (inactive) | 45.4 µM (inactive) | > 100 µM (inactive) |  | > 100 µM (inactive) |  | 99.1 µM (inactive) | > 100 µM | 44.7 µM (inactive) | 17.1 µM (inactive) |
| COc1ccc2c(c1)OCC1(O)Cc3ccccc3OC21 (configuration not stated) | > 100 µM (inactive) |  |  | > 100 µM (inactive) | > 100 µM (inactive) | > 100 µM (inactive) | > 100 µM (inactive) | > 100 µM (inactive) | > 100 µM (inactive) | > 100 µM (inactive) | > 100 µM (inactive) | > 100 µM (inactive) |  | > 100 µM (inactive) | > 100 µM (inactive) | > 100 µM (inactive) | > 100 µM | > 100 µM (inactive) | > 100 µM (inactive) |
